The values that follow come from patent US10738024B2, “Compounds for treatment of angiogenesis-mediated diseases” (Indiana University Research and Technology Corporation, priority 2013, dated 2020).

For one test, the system named is CCL2 (MCP-1). Briefly: qRT-PCR of NF-κB target gene CCL2 in TNF-α challenged cells. The class given is cell-based, human. To be noted: 10 ng/ml TNF-α for 24 hours; listed as SH-11052 (2). As for the experimental part: Similarly, the mRNA expression of the pro-inflammatory molecules IL8, PTGS2 (COX2) and CCL2 (MCP-1), inducible by NF-κB, were analyzed in the presence of SH-11052 (2). Cells (10^5 per well) were seeded in a 6-well plate and incubated for 24 hours at 37° C. and 5% CO2. The cells were then starved in 0.1% serum-EBM-2 for 12 hours followed by incubation for an hour in the presence of different concentrations of SH-11052 (2). The cells were then challenged for 24 hours with 10 ng/ml TNF-α. Following incubation, cells were lysed and RNA was isolated using Trizol reagent (Life Technologies). cDNA was prepared from 80 ng total RNA using random primers and M-MuLV Reverse Transcriptase (New England Biolabs, Ipswich, Mass., USA). RT-PCR reactions were set up using the TaqMan Fast Gene Expression Assay Kit according to the manufacturer's instructions. FAM-labeled TaqMan probes for PTGS2 (Hs00153133_m1), CCL2 (Hs00234140_m1), IL8 (Hs00174103_m1), and control, TBP (Hs99999910_m1), genes were used to monitor the expression levels of these genes. The qRT-PCR plate was read in a ViiATM 7 qPCR system (Life Technologies) and the data were analyzed using the ΔΔCt method. The expression levels of genes were normalized to TBP gene expression and calibrated to the DMSO-treated, unstimulated sample.
In general terms: In qPCR the cycle at which signal appears reflects the starting amount.

The next test concerns VCAM-1. Briefly: VCAM-1 protein expression in HRECs exposed to TNF-α (immunofluorescence). In kind it is cell-based, human. The settings on record: 10 ng/ml TNF-α for 24 hours. The procedure:
Cells (25,000 per coverslip) were seeded onto coverslips coated with Attachment Factor (Cell Systems, Kirkland, Wash., USA) and incubated at 37° C. and 5% CO2 for 24 hours in EGM-2. The cells were starved in 0.1% serum-EBM-2 for 8 hours followed by incubation in 0.1% serum-EBM-2 medium for an hour in the presence of different concentrations of SH-11052 (2). The cells were challenged with 10 ng/ml of TNF-α for 24 hours and fixed with 4% paraformaldehyde solution for 20 minutes at room temperature. The coverslips were quickly washed three times in TBS and blocked using 10% block solution (DAKO) prepared in 1×TBS-1% BSA buffer. The coverslips were incubated with the antibody against VCAM-1 (1:100 dilution), a cell adhesion molecule specifically expressed on endothelial cells, whose expression is induced by NF-κB upon TNF-α signaling, for 16 hours at 4° C. followed by three washes in TBS-0.1% BSA buffer. Dylight 555-conjugated secondary antibody (1:200) was used to probe for the VCAM-1 antibody. After three washes in TBS-0.1% BSA, the coverslips were mounted using Vectashield mounting medium containing DAPI nuclear stain. The cells were imaged using an LSM 700 confocal microscope. The image was analyzed for fluorescence signal intensity using MetaMorph software (Molecular Devices, Sunnyvale, Calif., USA).

The structures appear in SMILES notation.

Regarding `COc1ccc(CC2COc3cc(OC)c(O)c(O)c3C2=O)cc1O` (single isomer, unassigned) [Compound 2], in the test with CCL2 (MCP-1), the “mRNA expression of CCL2 (MCP-1)” value is reported as “decreased the expression”. Also, the VCAM-1 protein expression entry in the test on VCAM-1 is given as “significant dose-dependent decrease”.
